Measurements reported in ChEMBL document CHEMBL3860065, “Synthesis and biological evaluation of azole-diphenylpyrimidine derivatives (AzDPPYs) as potent T790M mutant form of epidermal growth factor receptor inhibitors” (Bioorg Med Chem, 2016).
pIC50: −log10 of the molar value.

Assays:
[1] = Antiproliferative activity against NHBE cells after 48 hrs by MTT assay; assay type: ADME, cell-based; conditions: Homo sapiens
cells = assay type: functional, cell-based; conditions: Homo sapiens, NCI-H1975, 48 h
[2] = Antiproliferative activity against human A549 cells harboring K-ras mutation after 48 hrs by MTT assay; assay type: functional, cell-based; conditions: A549, 48 h
[3] = human
[4] = Antiproliferative activity against wild type human A431 cells after 48 hrs by MTT assay; assay type: functional, cell-based; conditions: A-431, 48 h
[5] = molecular target: Epidermal growth factor receptor (Homo sapiens, UniProt P00533, L858R/T790M); experiment: biochemical; assay type: cell-based, Sf9
[6] = molecular target: Epidermal growth factor receptor (Homo sapiens, UniProt P00533); assay type: ADME, cell-based, Sf9
Description: Inhibition of human recombinant N-terminal GST-tagged wild type EGFR cytoplasmic domain (695 end residues) autophosphorylation expressed in baculovirus infected Sf9 insect cells by ADP-Glo luminescence assay

NCI-H1975 [7] = experiment: Induction of apoptosis in human NCI-H1975 cells harboring L858R/T790M double mutant assessed as late apoptotic cells at 500 nM after 48 hrs by annexin V-FITC/PI staining based flow cytometric analysis (reference value: 3.4%); assay type: functional
NCI-H1975 [8] = experiment: Induction of apoptosis in human NCI-H1975 cells harboring L858R/T790M double mutant assessed as viable cells at 50 nM after 48 hrs by annexin V-FITC/PI staining based flow cytometric analysis (reference value: 94.2%); assay type: functional; conditions: NCI-H1975, 48 h, read-out: Activity
NCI-H1975 [9] = experiment: Induction of apoptosis in human NCI-H1975 cells harboring L858R/T790M double mutant assessed as viable cells at 500 nM after 48 hrs by annexin V-FITC/PI staining based flow cytometric analysis (reference value: 94.2%); assay type: functional; conditions: NCI-H1975, 48 h, read-out: Activity
NCI-H1975 [10] = experiment: Induction of apoptosis in human NCI-H1975 cells harboring L858R/T790M double mutant assessed as early apoptotic cells at 50 nM after 48 hrs by annexin V-FITC/PI staining based flow cytometric analysis (reference value: 2%); assay type: functional
NCI-H1975 [11] = experiment: Induction of apoptosis in human NCI-H1975 cells harboring L858R/T790M double mutant assessed as necrotic cells at 500 nM after 48 hrs by annexin V-FITC/PI staining based flow cytometric analysis (reference value: 0.4%); assay type: functional
NCI-H1975 [12] = experiment: Induction of apoptosis in human NCI-H1975 cells harboring L858R/T790M double mutant assessed as necrotic cells at 200 nM after 48 hrs by annexin V-FITC/PI staining based flow cytometric analysis (reference value: 0.4%); assay type: functional
NCI-H1975 [13] = experiment: Induction of apoptosis in human NCI-H1975 cells harboring L858R/T790M double mutant after 48 hrs by annexin V-FITC/PI staining based flow cytometric analysis; assay type: functional, cell-based
NCI-H1975 [14] = experiment: Induction of apoptosis in human NCI-H1975 cells harboring L858R/T790M double mutant assessed as late apoptotic cells at 50 nM after 48 hrs by annexin V-FITC/PI staining based flow cytometric analysis (reference value: 3.4%); assay type: functional
NCI-H1975 [15] = experiment: Potency index, ratio of gefitinib IC50 to compound IC50 against human NCI-H1975 cells harboring L858R/T790M double mutant; assay type: functional
NCI-H1975 [16] = experiment: Induction of apoptosis in human NCI-H1975 cells harboring L858R/T790M double mutant assessed as early apoptotic cells at 200 nM after 48 hrs by annexin V-FITC/PI staining based flow cytometric analysis (reference value: 2%); assay type: functional
NCI-H1975 [17] = experiment: Induction of apoptosis in human NCI-H1975 cells harboring L858R/T790M double mutant assessed as early apoptotic cells at 500 nM after 48 hrs by annexin V-FITC/PI staining based flow cytometric analysis (reference value: 2%); assay type: functional
NCI-H1975 [18] = experiment: Induction of apoptosis in human NCI-H1975 cells harboring L858R/T790M double mutant assessed as viable cells at 200 nM after 48 hrs by annexin V-FITC/PI staining based flow cytometric analysis (reference value: 94.2%); assay type: functional; conditions: NCI-H1975, 48 h, read-out: Activity
[19] = tested on: Epidermal growth factor receptor (Homo sapiens), P00533 [L858R,T790M]; experiment: Potency index, ratio of rociletinib IC50 to compound IC50 for human recombinant N-terminal GST-tagged EGFR T790M/L858R double mutant cytoplasmic domain (695 end residues) autophosphorylation expressed in baculovirus infected Sf9 insect cells
NCI-H1975 [20] = experiment: Induction of apoptosis in human NCI-H1975 cells harboring L858R/T790M double mutant assessed as late apoptotic cells at 200 nM after 48 hrs by annexin V-FITC/PI staining based flow cytometric analysis (reference value: 3.4%); assay type: functional
NCI-H1975 [21] = experiment: Induction of apoptosis in human NCI-H1975 cells harboring L858R/T790M double mutant assessed as necrotic cells at 50 nM after 48 hrs by annexin V-FITC/PI staining based flow cytometric analysis (reference value: 0.4%); assay type: functional

| Structure (SMILES) | pIC50 [1] | pIC50 (cells) | pIC50 [2] | pIC50 [3] | pIC50 [4] | pIC50 [5] | pIC50 [6] | other results |
| --- | --- | --- | --- | --- | --- | --- | --- | --- |
| C=CC(=O)Nc1cccc(Nc2nc(Nc3ccc(OCCn4cncn4)cc3)ncc2Cl)c1 | < 4.40 | 5.63 | 4.96 | < 8.01 | 5.23 | 6.99 | < 6.00 | – |
| C=CC(=O)Nc1cccc(Nc2nc(Nc3ccc(OCCn4ccnc4)cc3)ncc2Cl)c1 | 4.41 | 6.41 | 5.07 | < 8.03 | 5.87 | 6.97 | < 6.00 | – |
| C=CC(=O)Nc1cccc(Nc2nc(Nc3ccc(-n4ccnc4)cc3)ncc2[N+](=O)[O-])c1 | < 4.40 | 4.90 | < 4.40 | < 7.99 | 4.91 | 7.01 | < 6.00 | – |
| C=CC(=O)Nc1cccc(Nc2nc(Nc3ccc(Cn4ccnc4)cc3)ncc2Cl)c1 | < 4.40 | 6.93 | 5.56 | 6.52 | 6.13 | 8.48 | 6.00 | Activity (NCI-H1975 [7]): 3.7%; viability at 0.05 µM (NCI-H1975 [8]): 81%; viability at 0.5 µM (NCI-H1975 [9]): 39.6%; Activity (NCI-H1975 [10]): 16.3%; Activity (NCI-H1975 [11]): 0.1%; Activity (NCI-H1975 [12]): 0.1%; Activity (NCI-H1975 [13]): Dose-dependent effect; Activity (NCI-H1975 [14]): 2.6%; Ratio IC50 (NCI-H1975 [15]): 10; Activity (NCI-H1975 [16]): 24.3%; Activity (NCI-H1975 [17]): 56.7%; viability at 0.2 µM (NCI-H1975 [18]): 71.3%; Ratio IC50 [19]: 8; Activity (NCI-H1975 [20]): 4.2%; Activity (NCI-H1975 [21]): 0.1% |
| C=CC(=O)Nc1cccc(Nc2nc(Nc3ccc(OCCCn4ccnc4)cc3)ncc2[N+](=O)[O-])c1 | 4.41 | 5.08 | 4.56 | < 7.61 | 5.19 | – | – | – |
| C=CC(=O)Nc1cccc(Nc2nc(Nc3ccc(NC(=O)Cn4ccnc4)cc3)ncc2[N+](=O)[O-])c1 | < 4.40 | 4.94 | < 4.40 | < 8.07 | 4.79 | – | – | – |
| C=CC(=O)Nc1cccc(Nc2nc(Nc3ccc(Cn4ccnc4)cc3OC)ncc2Cl)c1 | < 4.40 | 6.03 | 4.84 | 8.33 | 5.17 | 6.96 | 6.30 | – |
| C=CC(=O)Nc1cccc(Nc2nc(Nc3ccc(N4CCN(C(C)=O)CC4)cc3OC)ncc2C(F)(F)F)c1 [ROCILETINIB] | < 4.40 | 6.86 | 5.19 | 7.67 | 5.89 | – | – | – |
| C=CC(=O)Nc1cccc(Nc2nc(Nc3ccc(OCCn4ccnc4)cc3)ncc2F)c1 | 4.40 | 5.74 | 5.08 | < 6.96 | 5.61 | 8.04 | < 6.00 | – |
| C=CC(=O)Nc1cccc(Nc2nc(Nc3ccc(Cn4ccnc4)cc3)ncc2F)c1 | < 4.40 | 5.76 | 5.45 | 6.96 | 6.82 | 8.05 | 6.01 | – |
